The structures appear in SMILES notation.

Experiment [1] deals with COX-2. Description: Hippocampal COX-2 expression in mice (immunoblot). The class given is in vivo. In general terms: In western blotting, separated proteins are transferred to a membrane and probed.
The test system of experiment [2] is PGE2. Description: PGE2 assay in hippocampal tissue (enzyme immunoassay). The class given is in vivo, mice. An excerpt: PGE2 in hippocampal tissue was detected using PGE2 enzyme immunoassay kit (Cayman Chemical, Ann Arbor, Mich.) according to the procedure described by the manufacturer (Zhang and Chen, 2008).
The test system of experiment [3] is fear memory. The experiment is described as follows: Fear conditioning test (contextual memory). Type of experiment: in vivo, mice. To be noted: NS398 10 mg/kg + Δ^9-THC 10 mg/kg once a day for 7 days. How it is done: (§1) The classic Morris water maze and fear conditioning tests were performed to determine spatial and fear memory as described previously (Chen et al., 2012). The ‘open field’ test was conducted to detect the locomotor activity and the bar test was used to detect catalepsy (Egashira et al., 2007).
Hippocampus-dependent contextual memory was determined using a fear-conditioning working-station (Coulbourn Instruments, Allentown, Pa.) and a one-trial protocol as describe previously (Chen et al., 2006a; 2006b). Mice were individually put into the shock chamber and allowed to freely explore the environment for 150 seconds. Immediately after this, a tone at 90 dB and 2,800 Hz (CS) was delivered for 30 seconds, and at the last 2 seconds a foot shock at 0.8 mA was delivered to the mice for 2 seconds (US). After the pairing of CS/US, mice were allowed to stay in the chamber for another 30 seconds and then returned to their home cages. Then the animals started receiving vehicle, Δ^9-THC (10 mg/kg), NS398 (10 mg/kg), Δ^9-THC+NS398 once a day for 7 days. Fear memory test was conducted 24 hours after the cessation of the last injections. For contextual conditioning, mice were individually put back into the chamber where they received the shock and the freezing response was recorded for 5 minutes with a sampling method at an interval of 5 seconds. […]

The subject of experiment [4] is dendritic spines of CA1 pyramidal neurons. Description: Two-photon imaging of dendritic spines in CA1 pyramidal neurons. Type of experiment: in vivo, mice. To be noted: NS398+Δ^9-THC. As to the method: Morphology of dendritic spines in hippocampal CA1 pyramidal neurons was determined in GFP-expressing transgenic mice using a two-photon laser scanning microscope as described previously (Chen et al., 2012). Shape, size, and density of spines were measured from the three-dimensional reconstructions using NeuronStudio Version 0.9.92.
Morphology of dendritic spines in hippocampal CA1 pyramidal neurons was determined in GFP-expressing transgenic mice treated with vehicle, Δ^9-THC or NS398+Δ^9-THC using a two-photon laser scanning microscope (Chameleon hands-free ultrafast Ti: sapphire laser with an Olympus scan head) with Olympus FLUOVIEW 300 software (Chen et al., 2012). Shape (thin, mushroom, or stubby), size, density, and volume of spines were measured from the three-dimensional reconstructions (Z stacks: 1μ step for the whole cell and 0.1μ step for a segment of dendrites) using AutoQuant X2 or 3D deconvolution plugin of Image J (http://bigwww.epfl.ch/algorithms/deconvolutionlab) and NeuronStudio (for 3D reconstruction of imaged dendritic spines, Version 0.9.92; http://research.mssm.edu/cnic/tools-ns.html, CNIC, Mount Sinai School of Medicine). […] The following parameters were used in analyzing and quantifying spines using NeuronStudio: Voxel size was set as 0.029*0.029*0.3 μm. […]

Experiment [5] has as its system hippocampal LTP at CA3-CA1 and perforant path synapses. Description: Hippocampal LTP (fEPSP recordings in slices, theta-burst stimulation). The class given is in vivo, mice. How it is done: Hippocampal LTP both at CA3-CA1 and perforant path synapses were recorded in acutely hippocampal slices and induced by a theta-burst stimulation (TBS) as described previously (Hoffman et al., 2007).
Hippocampal slices were prepared from mice as described previously (Chen et al., 2002; Chen et al., 2012; Fan et al., 2010). Briefly, after decapitation, brains were rapidly removed and placed in cold oxygenated (95% O2, 5% CO2) artificial cerebrospinal fluid (ACSF) containing: 125.0 NaCl, 2.5 KCl, 1.0 MgCl2, 25.0 NaHCO3, 1.25 NaH2PO4, 2.0 CaCl2, 25.0 glucose, 3 pyruvic acid, and 1 ascorbic acid. Slices were cut at a thickness of 350-400 μm and transferred to a holding chamber in an incubator containing ACSF at 36° C. for 0.5 to 1 hour, and maintained in an incubator containing oxygenated ACSF at room temperature (˜22-24° C.) for >1.5 h before recordings. Slices were then transferred to a recording chamber where they were continuously perfused with 95% O2, 5% CO2-saturated standard ACSF at ˜32-34° C. Individual pyramidal and dentate granule neurons were viewed with an upright microscope (Olympus BX51WI) fitted with a 60× water-immersion objective and differential interference contrast (DIC) optics.
Field EPSP (fEPSP) recordings both at CA3-CA1 and perforant path synapses in response to stimuli at a frequency of 0.05 Hz were made using an Axoclamp-2B patch-clamp amplifier (Molecular Devices, CA) in bridge mode. Recording pipettes were pulled from borosilicate glass with a micropipette puller (Sutter Instrument), filled with artificial ACSF (2-4 MΩ). […]

Experiment [6] has as its system GluA1, GluN2A, GluN2B. The experiment is described as follows: Immunostaining of synaptic and extrasynaptic glutamate receptor subunits in hippocampal CA1. To be noted: NS398+Δ^9-THC.
The test system of experiment [7] is spatial memory. Description: Morris water maze test (spatial memory). The class given is in vivo, mice. The following applies: NS398 10 mg/kg + Δ^9-THC 10 mg/kg once a day for 7 days. How it is done: as §1
The classic Morris water maze test was used to determine spatial memory as described previously (Chen et al., 2012). A circular water tank (diameter 120 cm and 75 cm in high) was filled with water and the water was made opaque with non-toxic white paint. A round platform (diameter 15 cm) was hidden 1 cm beneath the surface of the water at the center of a given quadrant of the water tank. COX-2 KO and WT mice received training in the Morris water maze for 5 days without any treatments (naïve). […] For each trial, the mouse was released from the wall of the tank and allowed to search, find, and stand on the platform for 10 seconds within the 60-second trial period. […] During the probe test, the platform was removed from the pool, and the task performances were recorded for 60 seconds by a video-camera and the task performances, including swimming paths, speed, and time spent in each quadrant using an EthoVision video tracking system (Noldus). The time spent in each quadrant was analyzed.

In experiment [8] the test system is synaptic release of glutamate. Description: Miniature spontaneous EPSCs (mEPSCs) in cultured hippocampal neurons. Type of experiment: cell-based. To be noted: NS398 10 μM + Δ^9-THC 3 μM; 24 hrs.
Experiment [9] concerns COX-2. Description: COX-2 expression in neuronal and astroglial cell-enriched cultures. The class given is cell-based. To be noted: assayed 12 hr after treatments. How it is done: Relative pure hippocampal neurons (astroglial cells<2%), mixed neurons and astroglial cells (astroglial cells ˜10%), and astroglial cell-enriched (astroglial cells>95%), and NG108-15 cell cultures were made as described previously (Sang et al, 2005; Zhang and Chen, 2008).
Primary hippocampal neurons (astroglial cells<2%), mixed neurons and astroglial cells (astroglial cells ˜10%), astroglial cell-enriched (astroglial cells>95%) and NG108-15 cells were cultured as described previously (Sang et al, 2005; Zhang and Chen, 2008). The extent of neurons and astroglial cells in culture were controlled by different treatments, which was estimated by using immunostaining with NeuN, a neuronal marker, glial fibrillary acidic protein (GFAP), an astrocytic marker, and OX-42, a microglial marker, in conjunction with DAPI staining.

For experiment [10], the system named is PGE2. The following applies: earlier studies (Burstein et al., 1989; Fairbairn and Pickens; Perez-Reyes et al., 1991); cited from earlier work.

Regarding `CCCCCCC(C)(C)c1ccc([C@@H]2C[C@H](O)CC[C@H]2CCCO)c(O)c1` [CP55,940], the “hippocampal COX-2 expression after cannabinoid injection” value in experiment [1] (single i.p. injection, CP55,940 10 mg/kg, detected 4 hrs) is “more pronounced effects on COX-2 expression and PGE2 synthesis”. In experiment [2] (10 mg/kg, detected 4 hrs after injection), the “hippocampal PGE2 production after cannabinoid injection” value was “more pronounced effects on COX-2 expression and PGE2 synthesis”.

On to `CS(=O)(=O)Nc1ccc([N+](=O)[O-])cc1OC1CCCCC1` [NS398], for which the “effect on Δ^9-THC-impaired fear memory” value in [3] is reported as “attenuated by COX-2 inhibition”. In addition, the “effect on Δ^9-THC-decreased dendritic spine density” value in [4] is “prevented by inhibition of COX-2”. In addition, the “effect on LPS-reduced hippocampal LTP” value in experiment [5] (LPS 3 mg/kg + NS398 10 mg/kg once a day for 7 days) is “prevented”. Also, the “effect on Δ^9-THC-decreased hippocampal LTP” value in experiment [5] (NS398 10 mg/kg 30 min before Δ^9-THC 10 mg/kg, 7 days, CA3-CA1 and perforant path) is on record as “rescued decreased hippocampal LTP”. Further, the “effect on Δ^9-THC-decreased glutamate receptor expression” value in [6] is given as “prevented by inhibition of COX-2”. Also, the “effect on CP55,940-induced increase in PGE2” value in experiment [2] (NS398 10 mg/kg 30 min prior to CP 10 mg/kg) is reported as “could be blocked”. For the same compound, the “effect on Δ^9-THC-impaired spatial memory” value in experiment [7] is listed as “occluded by COX-2 inhibition”. The “effect on Δ^9-THC-enhanced synaptic release of glutamate” value in experiment [8] is on record as “blocked by inhibition of COX-2”.

Turning to `Cc1c(C(=O)NN2CCCCC2)nn(-c2ccc(Cl)cc2Cl)c1-c1ccc(Cl)cc1` [Rimonabant], the “effect on Δ^9-THC-induced increase in COX-2 in neurons and astroglial cells in culture” value in [9] is reported as “blocked”. For the same compound, the “effect on Δ^9-THC-induced increase in COX-2 in the hippocampus” value in [1] (RIM 5 mg/kg 30 min prior to Δ^9-THC 10 mg/kg, detected 4 hr after Δ^9-THC) was “blocked”.

For `COc1ccc2c(c1)c(CC(=O)O)c(C)n2C(=O)c1ccc(Cl)cc1` [indomethacin], the “effect on marijuana- or Δ^9-THC-induced elevation of PGE2 in circulation and the brain” value in [10] is “could be antagonized”.

The record behind these values is patent publication US9833433B1, “Compositions, methods of use, and methods of treatment” (priority 2013, dated 2017).
